From patent US20040116489A1, “Synthetic excitatory amino acids” (priority 2003, published 2004)

Tests used:
[1] = biological target: T1, recombinant mGlu2 receptors (Homo sapiens, UniProt Q14416); assay: forskolin-stimulated cAMP accumulation in cells expressing mGlu2; type: cell-based; details: for IC50: antagonist: blocks agonist induced decrease in forskolin-stimulated cAMP, read-out: IC50 (nM) ± SEM mGlu2, forskolin-stimulated cAMP accumulation; for EC50: agonist: reduces cAMP accumulation to 50% of the controls, read-out: EC50 (nM) ± SEM mGlu2, forskolin-stimulated cAMP accumulation
T1 construct: expressed in transfected cells
Procedure: (§1) To study the functional effect of compounds of the present invention in comparison to compounds of U.S. Pat. No. 5,958,960, forskolin stimulated c-AMP production in cells expressing recombinant mGlu2 and mGlu3 receptors was determined. As mGlu2 and mGlu3 receptors are negatively coupled to adenyl cyclase, activity of an agonist decreases forskolin-stimulated accumulation of cyclic adenosine monophosphate (cAMP) and is reported as the concentration necessary to reduce C-AMP accumulation to 50% of the controls (EC50, nM). The activity of an anatgonist blocks the agonist induced decrease in forskolin-stimulated accumulation of cyclic adenosine monophosphate (cAMP) and is reported as the concentration necessary to inhibit the reduction of C-AMP accumulation to 50% of the controls (IC50, nM).

recombinant human mGluR2 = biological target: T2, recombinant human mGluR2 (Homo sapiens, UniProt Q14416); assay: [3H]LY341495 displacement binding, mGlu2; details: displacement of [3H]LY341495; receptors expressed in RGT cells; read-out: Ki (nM) ± SEM mGlu2, effects on [3H]LY341495 binding
T2 construct: expressed in transfected cells; host or cells: RGT cells
Procedure: (§2) To study the ability to affect receptor binding of compounds of the present invention in comparison to compounds of U.S. Pat. No. 5,958,960, displacement of a high affinity mGluR2 antagonist radioligand [^3H]LY341495 from recombinant human mGluR2 and human mGluR3 receptors expressed in RGT cells was determined.

human mGluR3 = biological target: T3, human mGluR3 (Homo sapiens, UniProt Q14832); assay: [3H]LY341495 displacement binding, mGlu3; details: displacement of [3H]LY341495; receptors expressed in RGT cells; read-out: Ki (nM) ± SEM mGlu3, effects on [3H]LY341495 binding
T3 construct: expressed in transfected cells; host or cells: RGT cells
Procedure: as §2

[2] = biological target: T4, recombinant mGlu3 receptors (Homo sapiens, UniProt Q14832); assay: forskolin-stimulated cAMP accumulation in cells expressing mGlu3; type: cell-based; details: for IC50: antagonist: blocks agonist induced decrease in forskolin-stimulated cAMP, read-out: IC50 (nM) ± SEM mGlu3, forskolin-stimulated cAMP accumulation; for EC50: agonist: reduces cAMP accumulation to 50% of the controls, read-out: EC50 (nM) ± SEM mGlu3, forskolin-stimulated cAMP accumulation
T4 construct: expressed in transfected cells
Procedure: as §1

T4 sequence (Q14832 23-879): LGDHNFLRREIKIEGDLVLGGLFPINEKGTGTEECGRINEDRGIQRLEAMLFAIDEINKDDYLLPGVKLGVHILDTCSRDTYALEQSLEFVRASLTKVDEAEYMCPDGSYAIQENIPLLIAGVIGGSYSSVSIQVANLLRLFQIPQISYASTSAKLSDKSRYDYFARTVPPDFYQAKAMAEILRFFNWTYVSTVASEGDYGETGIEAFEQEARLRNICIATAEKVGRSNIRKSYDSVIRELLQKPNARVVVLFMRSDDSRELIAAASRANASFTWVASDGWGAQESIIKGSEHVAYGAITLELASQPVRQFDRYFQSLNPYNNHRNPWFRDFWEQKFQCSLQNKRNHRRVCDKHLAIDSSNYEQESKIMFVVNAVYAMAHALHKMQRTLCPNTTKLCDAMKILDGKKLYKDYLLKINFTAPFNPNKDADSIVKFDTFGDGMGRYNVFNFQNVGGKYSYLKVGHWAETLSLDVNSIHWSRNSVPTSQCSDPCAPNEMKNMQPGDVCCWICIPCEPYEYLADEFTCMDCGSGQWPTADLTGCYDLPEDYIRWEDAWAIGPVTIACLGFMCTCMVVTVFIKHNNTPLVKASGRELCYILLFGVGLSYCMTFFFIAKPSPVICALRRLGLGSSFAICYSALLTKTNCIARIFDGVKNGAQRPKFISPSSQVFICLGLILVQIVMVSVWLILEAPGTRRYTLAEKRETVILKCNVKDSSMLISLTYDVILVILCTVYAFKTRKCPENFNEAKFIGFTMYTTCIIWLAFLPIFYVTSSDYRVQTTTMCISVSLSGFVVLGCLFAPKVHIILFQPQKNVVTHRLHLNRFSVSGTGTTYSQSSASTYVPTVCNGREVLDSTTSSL
T3 sequence (Q14832 23-879): as above
T2 sequence (Q14416 19-872): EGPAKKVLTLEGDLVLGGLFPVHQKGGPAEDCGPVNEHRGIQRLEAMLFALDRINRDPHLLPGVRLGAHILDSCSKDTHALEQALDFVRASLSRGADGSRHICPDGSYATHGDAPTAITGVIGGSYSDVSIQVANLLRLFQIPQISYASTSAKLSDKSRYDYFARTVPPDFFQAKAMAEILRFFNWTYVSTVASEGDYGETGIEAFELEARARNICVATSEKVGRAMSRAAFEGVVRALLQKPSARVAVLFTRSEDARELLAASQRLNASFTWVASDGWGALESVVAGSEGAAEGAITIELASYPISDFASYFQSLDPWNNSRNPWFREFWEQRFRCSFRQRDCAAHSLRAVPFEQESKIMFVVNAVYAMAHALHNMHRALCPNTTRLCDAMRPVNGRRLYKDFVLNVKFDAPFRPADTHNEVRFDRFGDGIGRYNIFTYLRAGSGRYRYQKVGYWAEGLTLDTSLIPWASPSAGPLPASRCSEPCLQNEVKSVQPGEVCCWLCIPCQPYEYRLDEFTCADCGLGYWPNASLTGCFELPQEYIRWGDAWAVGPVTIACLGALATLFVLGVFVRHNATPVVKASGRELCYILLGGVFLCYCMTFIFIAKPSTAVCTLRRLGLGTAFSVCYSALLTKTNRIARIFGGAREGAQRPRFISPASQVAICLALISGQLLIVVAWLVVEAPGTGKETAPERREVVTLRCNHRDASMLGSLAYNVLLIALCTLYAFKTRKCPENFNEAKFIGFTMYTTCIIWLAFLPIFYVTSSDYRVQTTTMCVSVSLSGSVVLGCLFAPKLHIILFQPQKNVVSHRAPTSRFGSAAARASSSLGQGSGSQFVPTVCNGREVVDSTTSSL
T1 sequence (Q14416 19-872): as above

| SMILES | IC50 [1] [nM] | Ki (recombinant human mGluR2) [nM] | Ki (human mGluR3) [nM] | IC50 [2] [nM] | EC50 [1] [nM] | EC50 [2] [nM] |
| --- | --- | --- | --- | --- | --- | --- |
| N[C@@]1(C(=O)O)C[C@@H](NC(=O)c2ccccc2)[C@H]2[C@H](C(=O)O)[C@H]21 (relative stereo) [1S*, 2S*, 4R*, 5R*, 6S*) 2-Amino-4-benzoylaminobicyclo[3.1.0]hexane-2,6-dicarboxylic acid] | 4060 | 607 ± 10.2 | 393 ± 17.8 | 9520 | – | – |
| CC(=O)N[C@@H]1C[C@@](N)(C(=O)O)[C@@H]2[C@@H](C(=O)O)[C@@H]21 (relative stereo) [(1S*, 2S*, 4R*, 5R*, 6S*) 4-Acetylamino-2-aminobicyclo[3.1.0]hexane-2,6-dicarboxylic acid] | 4300 | 638 ± 59.6 | 399 ± 67.8 | 11100 | – | – |
| CC(=O)N[C@H]1C[C@@](N)(C(=O)O)[C@@H]2[C@@H](C(=O)O)[C@@H]21 (relative stereo) [Example 23, (1S*, 2S*, 4S*, 5R*, 6S*) 4-Acetylamino-2-amino-bicyclo[3.1.0]hexane-2,6-dicarboxylic acid] | – | 772 ± 38.8 | 214 ± 14.6 | – | 1350 | 1730 |

Stronger by Ki (recombinant human mGluR2), values ahead:

| IC50 [1] [nM] | Ki (recombinant human mGluR2) [nM] | Ki (human mGluR3) [nM] | IC50 [2] [nM] | EC50 [1] [nM] | EC50 [2] [nM] | SMILES |
| --- | --- | --- | --- | --- | --- | --- |
| 3220 | 468 ± 29 | 408 ± 25.4 | 6270 | – | – | CNC(=O)N[C@@H]1C[C@@](N)(C(=O)O)[C@@H]2[C@@H](C(=O)O)[C@@H]21 (relative stereo) [(1S*, 2S*, 4R*, 5R*, 6S*) 2-Amino-4-(3-methylureido)bicyclo[3.1.0]hexane-2,6-dicarboxylic acid] |
| – | 254 ± 10.7 | 23 ± 2.6 | – | 426 ± 41.8 | 41.1 ± 11.1 | CNC(=O)N[C@H]1C[C@@](N)(C(=O)O)[C@@H]2[C@@H](C(=O)O)[C@@H]21 (relative stereo) [Example 20, (1S*, 2S*, 4S*, 5R*, 6S*) 2-Amino-4-(3-methyl-ureido)-bicyclo[3.1.0]hexane-2,6-dicarboxylic acid] |
| – | 511 ± 89 | 9.54 ± 0.73 | – | 60.7 ± 1.03 | 18.1 ± 2.87 | N[C@@]1(C(=O)O)C[C@H](NC(=O)c2ccccc2)[C@H]2[C@H](C(=O)O)[C@H]21 (relative stereo) [Example 24, (1S*, 2S*, 4S*, 5R*, 6S*) 2-Amino-4-benzoylamino-bicyclo[3.1.0]hexane-2,6-dicarboxylic acid] |
